Results as given in US8642657B2 (Gruenenthal GmbH, priority 2003, dated 2014).

Key:
rat VR1 [1] = biological target: T1, rat VR1 (Rattus norvegicus, UniProt O35433); assay: 45Ca2+-uptake assay in CHO/VR1 cells, antagonism of capsaicin-stimulated uptake; format: cell-based; conditions: 45Ca2+ uptake stimulated by 50 nM capsaicin
T1 construct: expressed in transfected cells

rat VR1 [2] = biological target: T1, rat VR1; assay: [3H]resiniferatoxin (RTX) competition binding assay, VR1-transfected CHO cells
Outline: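 Competition with [3H]RTX (50-100 pM) ran 60 min at 37° C using whole VR1-induced CHO cells in BSA-containing DPBS, nonspecific defined by 100 nM cold RTX. After centrifugation, pellet radioactivity counted by scintillation; Hill fits gave Ki and cooperativity.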

[3] = competition with [3H]RTX, rat VR1 in CHO cells, read-out: Ki (nM) Binding Affinity

T1 sequence (O35433 whole entry): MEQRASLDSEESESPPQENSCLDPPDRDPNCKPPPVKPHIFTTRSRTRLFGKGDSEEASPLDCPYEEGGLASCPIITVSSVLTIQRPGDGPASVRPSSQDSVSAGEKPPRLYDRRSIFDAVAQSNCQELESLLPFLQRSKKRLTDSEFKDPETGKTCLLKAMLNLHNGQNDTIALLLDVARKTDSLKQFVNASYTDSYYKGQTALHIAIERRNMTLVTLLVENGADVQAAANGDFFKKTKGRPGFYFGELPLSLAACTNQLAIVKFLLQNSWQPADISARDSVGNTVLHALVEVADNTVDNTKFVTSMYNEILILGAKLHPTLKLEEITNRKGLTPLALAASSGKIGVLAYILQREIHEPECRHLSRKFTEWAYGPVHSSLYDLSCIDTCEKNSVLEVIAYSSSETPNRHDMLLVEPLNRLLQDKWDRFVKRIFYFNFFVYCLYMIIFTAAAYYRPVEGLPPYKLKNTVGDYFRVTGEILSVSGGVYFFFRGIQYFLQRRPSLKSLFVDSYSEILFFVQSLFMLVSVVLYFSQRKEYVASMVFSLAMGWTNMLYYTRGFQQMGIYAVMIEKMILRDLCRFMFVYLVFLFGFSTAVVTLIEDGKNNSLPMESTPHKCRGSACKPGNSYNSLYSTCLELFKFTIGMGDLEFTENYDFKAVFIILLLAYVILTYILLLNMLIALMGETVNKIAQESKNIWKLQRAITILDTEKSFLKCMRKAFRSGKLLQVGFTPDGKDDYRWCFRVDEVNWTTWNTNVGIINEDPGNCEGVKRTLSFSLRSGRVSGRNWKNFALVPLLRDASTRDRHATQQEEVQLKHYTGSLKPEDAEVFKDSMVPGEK

Structure (SMILES) | melting point [°C] | Ki (rat VR1 [1]) [nM] | Ki (rat VR1 [2]) [nM] | Ki (rat VR1 [2]; [3]) [nM]
C[C@H](NC(=S)NC[C@@H](COC(=O)C(C)(C)C)Cc1ccccc1)c1ccc(NS(C)(=O)=O)cc1 [18-4, N-[(2S)-2-Benzyl-3-(pivaloyloxy)propyl]-N′-{(1S)-1-[4-(methylsulfonylamino)phenyl]ethyl}thiourea] | 62 to 64 | 133 | 706 | 
COc1cc(C(C)(C)NC(=S)NCc2ccc(C(C)(C)C)cc2)ccc1NS(C)(=O)=O [21-9, N-(4-t-Butylbenzyl)-N′-{1-methyl-1-[3-methoxy-4-(methylsulfonylamino)phenyl]ethyl}thiourea] | 148 to 150 | 663 |  | 2890
CC(NC(=O)Cc1ccc(C(C)(C)C)cc1)c1ccc(NS(C)(=O)=O)c(F)c1 (stereo not drawn) [24-1, N-{1-[3-Fluoro-4-(methylsulfonylamino)phenyl]ethyl}-3-(4-tert-butylphenyl)acetamide] | 134 to 136 | 2220 |  | 2130
CCC(NC(=S)NCc1ccc(C(C)(C)C)cc1)c1ccc(NS(C)(=O)=O)c(F)c1 (stereo not drawn) [20-12, N-(4-t-Butylbenzyl)-N′-{1-[4-(methylsulfonylamino)-3-fluorophenyl]propyl}thiourea] | 85 | 54.3 |  | 230
CC(NC(=S)NCC(COC(=O)C(C)(C)C)Cc1ccc(C(C)(C)C)cc1)c1ccc(NS(C)(=O)=O)c(F)c1 (stereo not drawn) [18-14, N-[2-(4-tert-Butylbenzyl)-3-(pivaloyloxy)propyl]-N′-{1-[3-fluoro-4-(methylsulfonylamino)phenyl]ethyl}thiourea] | 78 | 9.34 | 37 | 
COc1cc(C2(NC(=S)NCc3ccc(C(C)(C)C)cc3)CC2)ccc1NS(C)(=O)=O [22-9, N-(4-t-Butylbenzyl)-N′-{1-[3-methoxy-4-(methylsulfonylamino)phenyl]cyclopropyl}thiourea] | 100 to 103 | 243 |  | 372
COc1cc(C(C)(C)C(=O)NCCCc2ccc(C)c(C)c2)ccc1NS(C)(=O)=O [9-6, N-[3-(3,4-Dimethylphenyl)propyl]-2-[3-methoxy-4-(methylsulfonylamino)phenyl]-2-methylpropionamide] | 93 to 95 | 366 | 838 | 
Cc1ccc(CC(CNC(=O)C(C)(C)c2ccc(NS(C)(=O)=O)c(F)c2)COC(=O)C(C)(C)C)cc1C (stereo not drawn) [9-2, N-[2-(3,4-Dimethylbenzyl)-3-pivaloyloxypropyl]-2-[3-fluoro-4-(methylsulfonylamino)phenyl]-2-methylpropionamide] | 53 to 55 | 65.4 | 276 | 
C[C@H](C(=O)NC[C@@H](COC(=O)C(C)(C)C)Cc1ccc(C(C)(C)C)cc1)c1ccc(NS(C)(=O)=O)c(Cl)c1 [6-14, N-[(2S)-2-(4-t-Butylbenzyl)-3-(pivaloyloxy)propyl]-(2S)-2-[3-chloro-4-(methylsulfonylamino)phenyl]propionamide] | 55 to 57 | 12.1 |  | 3.29
CC(NC(=O)C=Cc1ccc(Cl)cc1)c1ccc(NS(C)(=O)=O)c(F)c1 (stereo not drawn) [24-7, N-{1-[3-Fluoro-4-(methylsulfonylamino)phenyl]ethyl}-3-(4-chlorophenyl)-2-propenamide] | 219 to 221 | 938 | 773 | 
CC(C(=O)NCC=C1c2ccccc2CCc2ccccc21)c1ccc(NS(C)(=O)=O)c(F)c1 (stereo not drawn) [4-28, N-[2-(10,11-Dihydro-5H-dibenzo[a,d]cyclohepten-5-yliden)ethyl]-2-[3-fluoro-4-(methylsulfonylamino)phenyl]propionamide] | 67 to 69 | 121 |  | 141
CC(C(=O)NCc1ccc(C(C)(C)C)cc1)c1ccc(NS(C)(=O)=O)cc1Cl (stereo not drawn) [1-67, N-(4-tert-Butylbenzyl)-2-[2-chloro-4-(methylsulfonylamino)phenyl]propionamide] | 134 to 136 | 4480 |  | 1420
COC(=O)c1cc(C(C)C(=O)NCc2ccc(C(C)(C)C)cc2)ccc1NS(C)(=O)=O (stereo not drawn) [1-59, N-(4-tert-Butylbenzyl)-2-[3-(methoxycarbonyl)-4-(methylsulfonylamino)phenyl]propionamide] | 142 to 144 | 951 |  | 1610
CC(C)c1ccc(CNC(=O)C(C)c2ccc(NS(C)(=O)=O)c(F)c2)cc1 (stereo not drawn) [4-8, N-(4-Isopropylbenzyl)-2-[3-fluoro-4-(methylsulfonylamino)phenyl]propionamide] | 137 to 139 | 143 |  | 127
CC(C(=O)NCc1ccc(Cl)cc1)c1ccc(NS(C)(=O)=O)cc1 (stereo not drawn) [2-8, N-(4-Chlorobenzyl)-2-[4-(methylsulfonylamino)phenyl]propionamide] | 164 | 1090 | 3500 | 
C[C@@H](NC(=S)NC[C@@H](COC(=O)C(C)(C)C)Cc1ccc(C(C)(C)C)cc1)c1ccc(NS(C)(=O)=O)cc1 [18-12, N-[(2S)-2-(4-tert-Butylbenzyl)-3-(pivaloyloxy)propyl]-N′-{(1R)-1-[4-(methylsulfonylamino)phenyl]ethyl}thiourea] | 88 to 90 | 30.6 | 8.09 | 
CC(C)(C)c1ccc(CNC(=S)NC(c2ccccc2)c2ccc(NS(C)(=O)=O)c(F)c2)cc1 (stereo not drawn) [20-14] | 191 | 861 |  | 100
Cc1ccc(CC(CNC(=O)C(C)(C)c2ccc(NS(C)(=O)=O)cc2)COC(=O)C(C)(C)C)cc1C (stereo not drawn) [9-1, N-[2-(3,4-Dimethylbenzyl)-3-pivaloyloxypropyl]-2-[4-(methylsulfonylamino)phenyl]-2-methylpropionamide] | 126 to 130 | 103 |  | 372
Cc1ccc(CC(CNC(=S)NC(C)c2ccc(NS(C)(=O)=O)c(F)c2)COC(=O)C(C)(C)C)cc1C (stereo not drawn) [18-13, N-[2-(3,4-Dimethylbenzyl)-3-(pivaloyloxy)propyl]-N′-{1-[3-fluoro-4-(methylsulfonylamino)phenyl]ethyl}thiourea] | 73 | 7.09 | 37 | 
Cc1ccc(C=CC(=O)NC(C)c2ccc(NS(C)(=O)=O)c(F)c2)cc1C (stereo not drawn) [24-5, N-{1-[3-Fluoro-4-(methylsulfonylamino)phenyl]ethyl}-3-(3,4-dimethylphenyl)-2-propenamide] | 212 to 213 | 1350 | 2520 | 
CC(C(=O)NCc1ccc(Cl)c(Cl)c1)c1ccc(NS(C)(=O)=O)c(Cl)c1 (stereo not drawn) [4-5, N-(3,4-Dichlorobenzyl)-2-[3-chloro-4-(methylsulfonylamino)phenyl]propionamide] | 129 to 130 | 176 | 289 | 
COc1cc(C(C)C(=O)NCC(COC(=O)C(C)(C)C)Cc2ccc(C)c(C)c2)ccc1NS(C)(=O)=O (stereo not drawn) [5-5, N-[2-(3,4-Dimethylbenzyl)-3-pivaloyloxypropyl]-2-[3-methoxy-4-(methylsulfonylamino)phenyl]propionamide] | 54 to 57 | 13.6 |  | 71.2
CC(C(=O)NCc1ccc(Cl)cc1)c1ccc(NS(C)(=O)=O)c(Br)c1 (stereo not drawn) [4-3, N-(4-Chlorobenzyl)-2-[3-bromo-4-(methylsulfonylamino)phenyl]propionamide] | 147 | 296 | 541 | 
CC(C(=O)NCC(c1ccccc1)c1ccccc1)c1ccc(NS(C)(=O)=O)c(F)c1 (stereo not drawn) [4-23, N-(2,2-Diphenylethyl)-2-[3-fluoro-4-(methylsulfonylamino)phenyl]propionamide] | 129 | 2490 |  | 1700
Cc1ccc(CCCNC(=O)C2(c3ccc(NS(C)(=O)=O)cc3)CC2)cc1C [12-4, N-[3-(3,4-Dimethylphenyl)propyl]-1-[4-(methylsulfonylamino)phenyl]cyclopropanecarboxamide] | 127 to 128 | 1100 | 1740 | 
CC(C(=O)NCc1ccc(-c2ccccc2)cc1)c1ccc(NS(C)(=O)=O)c(F)c1 (stereo not drawn) [4-11, N-(4-Biphenylmethyl)-2-[3-fluoro-4-(methylsulfonylamino)phenyl]propionamide] | 155 to 157 | 261 |  | 1750
C[C@@H](NC(=S)NC[C@H](COC(=O)C(C)(C)C)Cc1ccccc1)c1ccc(NS(C)(=O)=O)cc1 [18-1, N-[(2R)-2-Benzyl-3-(pivaloyloxy)propyl]-N′-{(1R)-1-[4-(methylsulfonylamino)phenyl]ethyl}thiourea] | 62 to 64 | 44.5 | 22.7 | 
COc1cc(C2(C(=O)NCCCc3ccc(C)c(C)c3)CC2)ccc1NS(C)(=O)=O [12-6, N-[3-(3,4-Dimethylphenyl)propyl]-1-[3-methoxy-4-(methylsulfonylamino)phenyl]cyclopropanecarboxamide] | 88 to 89 | 1240 | 1700 | 
CC(C(=O)NCC(COC(=O)C(C)(C)C)Cc1ccc(C(C)(C)C)cc1)c1ccc(NS(C)(=O)=O)c(F)c1 (stereo not drawn) [5-4, 2-[3-Fluoro-4-(methylsulfonylamino)phenyl]-N-[2-(4-tert-butylbenzyl)-3-pivaloyloxypropyl]propionamide] | 113 to 115 | 3.24 |  | 13.6
CC(NC(=S)NCC(COC(=O)C(C)(C)C)Cc1ccc(C(C)(C)C)cc1)c1ccc(NS(C)(=O)=O)cc1 (stereo not drawn) [18-9, N-[2-(4-tert-Butylbenzyl)-3-(pivaloyloxy)propyl]-N′-{1-[4-(methylsulfonylamino)phenyl]ethyl}thiourea] | 87 | 28.7 | 42.7 | 
